# According to patent US9708336B2, “Metallo-beta-lactamase inhibitors” (priority 2014, dated 2017):
# Read-outs that look alike come from different tables or passages of the source.
# Legend:
# NDM-1 = NDM-1 (Klebsiella pneumoniae, UniProt C7C422); test: biochemical; format: biochemical; conditions: read-out: NDM-1 IC50
# IMP-1 = IMP-1 (Serratia marcescens, UniProt P52699); test: biochemical; format: biochemical; conditions: read-out: IMP-1 IC50
# VIM-1 = VIM-1 (Pseudomonas aeruginosa (strain ATCC 15692 / DSM 22644 / CIP 104116 / JCM 14847 / LMG 12228 / 1C / PRS 101 / PAO1), UniProt A0A0F7KYQ8); test: Enzyme activity: determination of IC50, fluorescence assay with CCF2-FA substrate (VIM-1); format: biochemical
# [1] = tested on: Escherichia coli expressing NDM-1 (CLB30016); test: Antibiotic potentiation activity: synergistic concentration (MITC95) with imipenem, OD600 growth; format: cell-based
# Outline: (§1)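 Each strain, suspended in saline from overnight colonies and diluted 1:100 into 1.1× CAMHB, is dosed with imipenem at 4 μg/ml (or 1 μg/ml) plus compound, incubated 22–24 h at 35 °C and read by absorbance.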
# [2] = tested on: Klebsiella pneumoniae expressing VIM-1 (IHMA599644); test: as above; format: cell-based
# Outline: as §1
# [3] = tested on: Serratia marcescens expressing IMP-1 (CL5741); test: as above; format: cell-based
# Outline: as §1
# [4] = fluorescence assay with CCF2-FA substrate
# [5] = fluorescence assay with CCF2-FA substrate, read-out: VIM-1 IC50
# [6] = CLB30016 (NDM-1), 95% inhibition of bacterial growth
# [7] = IHMA599644 (VIM-1), 95% inhibition of bacterial growth
# [8] = CL5741 (IMP-1), 95% inhibition of bacterial growth
# [9] = NDM-1 enzyme, CCF2-FA substrate
# [10] = IMP-1 enzyme, CCF2-FA substrate
# [11] = VIM-1 enzyme, CCF2-FA substrate, read-out: VIM-1 IC50
# [12] = (CLB30016, NDM-1), 95% growth inhibition
# [13] = Klebsiella pneumoniae IHMA599644 (VIM-1), 95% growth inhibition
# [14] = Serratia marcescens CL5741 (IMP-1), 95% growth inhibition
# [15] = concentration giving 95% inhibition of bacterial growth
# [16] = NDM-1 enzyme, CCF2-FA fluorescence assay
# [17] = IMP-1 enzyme, CCF2-FA fluorescence assay
# [18] = VIM-1 enzyme, CCF2-FA fluorescence assay, read-out: VIM-1 IC50
# [19] = Escherichia coli expressing NDM-1 (CLB30016), 95% growth inhibition
# [20] = Klebsiella pneumoniae expressing VIM-1 (IHMA599644), 95% growth inhibition
# [21] = Serratia marcescens expressing IMP-1 (CL5741), 95% growth inhibition
# Chain of NDM-1 (C7C422 whole entry, looked up, species assumed): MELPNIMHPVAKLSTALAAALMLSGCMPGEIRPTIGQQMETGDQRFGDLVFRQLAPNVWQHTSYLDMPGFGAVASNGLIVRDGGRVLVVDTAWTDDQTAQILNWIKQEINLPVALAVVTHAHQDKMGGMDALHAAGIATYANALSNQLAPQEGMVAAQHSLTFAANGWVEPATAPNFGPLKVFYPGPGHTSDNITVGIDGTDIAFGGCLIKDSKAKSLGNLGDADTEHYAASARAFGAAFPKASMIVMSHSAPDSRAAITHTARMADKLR
# Chain of IMP-1 (P52699 whole entry, looked up): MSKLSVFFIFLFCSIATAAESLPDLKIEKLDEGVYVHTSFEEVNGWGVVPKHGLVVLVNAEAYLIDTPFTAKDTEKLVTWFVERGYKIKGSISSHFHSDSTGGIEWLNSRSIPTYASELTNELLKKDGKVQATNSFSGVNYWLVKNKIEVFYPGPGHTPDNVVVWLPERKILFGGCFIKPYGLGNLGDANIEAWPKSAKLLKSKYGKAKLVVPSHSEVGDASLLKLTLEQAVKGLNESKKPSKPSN
Compound,IC50 (NDM-1; [4]) [nM],IC50 (IMP-1; [4]) [nM],IC50 (VIM-1; [5]) [nM],"Escherichia coli MITC95 [1, 6] [µM]","Klebsiella pneumoniae MITC95 [2, 7] [µM]","Serratia marcescens MITC95 [3, 8] [µM]",IC50 (NDM-1; [16]) [nM],IC50 (IMP-1; [17]) [nM],"Escherichia coli MITC95 [1, 19] [µM]","Klebsiella pneumoniae MITC95 [2, 20] [µM]","Serratia marcescens MITC95 [3, 21] [µM]",other results
"N=C(N)N[C@H]1CC[C@H](c2ccc(C(F)(F)F)c(S(N)(=O)=O)c2-c2nnn[nH]2)CC1 [Example 823, 1-[4-[3-sulfamoyl-2-(1H-tetrazol-5-yl)-4-(trifluoromethyl)phenyl]cyclohexyl] guanidine]",17.5,25.4,0.666,1.172,1.172,0.3906,–,–,–,–,–,–
"NS(=O)(=O)c1c(CCCCCCO)ccc(CCCCCCO)c1-c1nn[nH]n1 [Example 543, 3,6-Bis(6-hydroxyhexyl)-2-(2H-tetrazol-5-yl)benzenesulfonamide]",–,–,–,–,–,–,–,–,–,–,–,"IC50 (NDM-1; [9]): 2.62 nM; IC50 (IMP-1; [10]): 1.16 nM; IC50 (VIM-1; [11]): 3.21 nM; Escherichia coli MITC95 [1, 12]: 50 µM; Klebsiella pneumoniae MITC95 [2, 13]: >200 µM; Serratia marcescens MITC95 [3, 14]: 12.5 µM"
"CN(C)CCC1CCN(c2ccnc(S(N)(=O)=O)c2-c2nnn[nH]2)CC1 [Example 219, 4-{4-[2-(dimethylamino)ethyl]piperidin-1-yl}-3-(1H-tetrazol-5-yl)pyridine-2-sulfonamide]",1060,10400,458,–,–,–,–,–,–,–,–,"Escherichia coli expressing NDM-1 (CLB 30016) MITC95 [1, 15]: 4.688 µM; Klebsiella pneumoniae expressing VIM-1 (IHMA 599644) MITC95 [2, 15]: 12.5 µM; Serratia marcescens expressing IMP-1 (CL5741) MITC95 [3, 15]: 37.5 µM"
"NCCC1CCN(c2ccc(C(F)(F)F)c(S(N)(=O)=O)c2-c2nnn[nH]2)CC1 [Example 755, 3-[4-(2-aminoethyl)piperidin-1-yl]-2-(1H-tetrazol-5-yl)-6-(trifluoromethyl) benzenesulfonamide]",13.9,22.1,0.191,6.25,3.125,6.25,–,–,–,–,–,–
"CNC1CC(N2CC(c3ccc(-c4ccc(C(F)(F)F)c(S(N)(=O)=O)c4-c4nnn[nH]4)cc3)C2)C1 (stereo not drawn) [Example 815, 4′-{1-[3-(methylamino)cyclobutyl]azetidin-3-yl}-2-(1H-tetrazol-5-yl)-4-(trifluoromethyl)biphenyl-3-sulfonamide]",4.84,6.01,18,1.563,100,3.125,–,–,–,–,–,–
"NCC1CCC(N2CCC(c3ccc(-c4ccc(C(F)(F)F)c(S(N)(=O)=O)c4-c4nnn[nH]4)cc3)CC2)CC1 (stereo not drawn) [Example 787, 4′-{1-[4-(aminomethyl)cyclohexyl]piperidin-4-yl}-2-(1H-tetrazol-5-yl)-4-(trifluoromethyl)biphenyl-3-sulfonamide]",7.09,1.71,8.1,1.563,25,3.125,–,–,–,–,–,–
"NS(=O)(=O)c1c(C(F)(F)F)ccc(-c2ccc(C3CCN(CC4CCNC4)CC3)cc2)c1-c1nnn[nH]1 (stereo not drawn) [Example 795, 4′-[1-(pyrrolidin-3-ylmethyl)piperidin-4-yl]-2-(1H-tetrazol-5-yl)-4-(trifluoromethyl)biphenyl-3-sulfonamide]",5.23,1.1,6.57,1.563,25,3.125,–,–,–,–,–,–
"NS(=O)(=O)c1c(CC2CNC2)ccc(-c2ccc(C3CCNCC3)cc2)c1-c1nn[nH]n1 [Example 469, 4-(azetidin-3-ylmethyl)-4′-(piperidin-4-yl)-2-(2H-tetrazol-5-yl)-[1,1′-biphenyl]-3-sulfonamide]",–,–,–,–,–,–,10.7,29.7,0.7813,1.563,1.563,IC50 (VIM-1; [18]): 7.65 nM
"N=C(N)NCc1ccc(-c2ccc(C(F)(F)F)c(S(N)(=O)=O)c2-c2nn[nH]n2)cc1 [Example 440, 4′-(guanidinomethyl)-2-(2H-tetrazol-5-yl)-4-(trifluoromethyl)-[1,1′-biphenyl]-3-sulfonamide]",–,–,–,–,–,–,3.91,3.37,0.25,0.7656,0.0625,IC50 (VIM-1; [18]): 0.357 nM
"NS(=O)(=O)c1c(C(F)(F)F)ccc(-c2ccc(CO)cc2)c1-c1nn[nH]n1 [Example 445, 4′-(hydroxymethyl)-2-(2H-tetrazol-5-yl)-4-(trifluoromethyl)-[1,1′-biphenyl]-3-sulfonamide]",–,–,–,–,–,–,1.28,1.17,1.547,4.688,0.125,IC50 (VIM-1; [18]): 1.34 nM
"NCCCN1CC(c2ccc(-c3ccc(C(F)(F)F)c(S(N)(=O)=O)c3-c3nnn[nH]3)cc2)C1 [Example 816, 4′-[1-(3-aminopropyl)azetidin-3-yl]-2-(1H-tetrazol-5-yl)-4-(trifluoromethyl)biphenyl-3-sulfonamide]",6.62,16.3,13.5,1.563,12.5,6.25,–,–,–,–,–,–
"Nc1nc2c(-c3ccc(CCO)c(S(N)(=O)=O)c3-c3nn[nH]n3)cccc2s1 [Example 531, 3-(2-Aminobenzo[d]thiazol-4-yl)-6-(2-hydroxyethyl)-2-(2H-tetrazol-5-yl)benzenesulfonamide]",–,–,–,–,–,–,–,–,–,–,–,"IC50 (NDM-1; [9]): 2.07 nM; IC50 (IMP-1; [10]): 32.1 nM; IC50 (VIM-1; [11]): 8.36 nM; Escherichia coli MITC95 [1, 12]: 6.25 µM; Klebsiella pneumoniae MITC95 [2, 13]: 12.5 µM; Serratia marcescens MITC95 [3, 14]: 12.5 µM"
"NS(=O)(=O)c1cccc(-c2ccc(CNC3CC(F)(F)C3)cc2)c1-c1nnn[nH]1 [Example 339, 4′-(((3,3-difluorocyclobutyl)amino)methyl)-2-(1H-tetrazol-5-yl)-[1,1′-biphenyl]-3-sulfonamide]",–,–,–,–,–,–,4.54,42.3,0.5859,>200,1.563,IC50 (VIM-1; [18]): 611 nM
"N=C(NC1CCNC1)c1ccc(-c2ccc(C(F)(F)F)c(S(N)(=O)=O)c2-c2nn[nH]n2)cc1 (stereo not drawn) [Example 564, N-(pyrrolidin-3-yl)-3′-sulfamoyl-2′-(2H-tetrazol-5-yl)-4′-(trifluoromethyl)biphenyl-4-carboximidamide]",–,–,–,–,–,–,–,–,–,–,–,"IC50 (NDM-1; [9]): 262 nM; IC50 (IMP-1; [10]): 301 nM; IC50 (VIM-1; [11]): 36.3 nM; Escherichia coli MITC95 [1, 12]: 25 µM; Klebsiella pneumoniae MITC95 [2, 13]: 50 µM; Serratia marcescens MITC95 [3, 14]: 25 µM"
"Nc1ncc(CCc2ccc(C(F)(F)F)c(S(N)(=O)=O)c2-c2nn[nH]n2)cc1CO [Example 508, 3-(2-(6-Amino-5-(hydroxymethyl)pyridin-3-yl)ethyl)-2-(2H-tetrazol-5-yl)-6-(trifluoromethyl)benzenesulfonamide]",–,–,–,–,–,–,–,–,–,–,–,"IC50 (NDM-1; [9]): 4.55 nM; IC50 (IMP-1; [10]): 2.37 nM; IC50 (VIM-1; [11]): 1.66 nM; Escherichia coli MITC95 [1, 12]: 0.8359 µM; Klebsiella pneumoniae MITC95 [2, 13]: 3.125 µM; Serratia marcescens MITC95 [3, 14]: 0.0625 µM"
"Nc1ccc(-c2ccc(C(F)(F)F)c(S(N)(=O)=O)c2-c2nn[nH]n2)cn1 [Example 265, 3-(6-aminopyridin-3-yl)-2-(2H-tetrazol-5-yl)-6-(trifluoromethyl)benzenesulfonamide]",–,–,–,–,–,–,2.65,6.93,0.125,4.775,0.4271,"IC50 (VIM-1; VIM-1 IC50, VIM-1 enzyme, CCF2-FA fluorescence assay): 1.26 nM"
